# Data from patent US10723699B2 (Hyundai Pharm Co., Ltd., priority 2015, dated 2020).
# Key:
# [1] = biological target: T1, G protein-coupled receptor 119 (GPR-119) (Mesocricetus auratus, UniProt A0A1U8CD06); assay: cAMP activity in HIT-T15 cells (cAMP dynamic kit, FRET); assay type: cell-based, hamster; details: 1 hour at 37° C., six concentrations 0.0032 to 10 μM, read-out: EC50
# T1 construct: hamster-derived β-cells containing G protein-coupled receptor 119 (GPR-119), HIT-T15 cells; host or cells: HIT-T15 (hamster pancreatic β-cells)
# T1 sequence (A0A1U8CD06 1-334): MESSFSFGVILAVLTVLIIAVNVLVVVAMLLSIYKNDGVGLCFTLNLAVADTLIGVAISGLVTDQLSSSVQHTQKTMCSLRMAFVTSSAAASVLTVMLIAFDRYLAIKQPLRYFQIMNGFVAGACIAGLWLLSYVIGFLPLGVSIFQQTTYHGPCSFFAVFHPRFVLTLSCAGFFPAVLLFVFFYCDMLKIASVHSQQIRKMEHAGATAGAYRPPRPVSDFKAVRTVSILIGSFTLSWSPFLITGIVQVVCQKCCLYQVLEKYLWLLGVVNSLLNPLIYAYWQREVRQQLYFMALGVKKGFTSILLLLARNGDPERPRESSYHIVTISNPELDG
# In short: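 Hamster HIT-T15 cells (60,000/well) were treated next day with compound at six concentrations, 0.0032–10 μM, for 1 h at 37° C. Cells were then lysed and cAMP measured by competitive HTRF immunoassay (D2-cAMP, cryptate anti-cAMP). Activity was derived as the change in FRET signal relative to DMSO.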
# CYP3A4 = biological target: T2, CYP3A4 (Homo sapiens, UniProt P08684); assay: CYP inhibition assay (BD GENTEST kit); assay type: in vitro ADME; details: 10 μM
# T2 construct: purchased BD GENTEST 459500
# Description: (§1) CYP enzymes play a major role in the metabolism of drugs. Depending on the inhibition activity of the CYP enzymes, the dose of the drugs and toxicity due to the co-administration of other drugs can be predicted. Therefore, we have measured the inhibitory activity for CYP3A4, CYP2C9, CYP1A2, CYP2D6 and CYP2C19 enzymes present in the body using the compounds of the present invention. Invitrogen P2862 kit was used for CYP2D6 inhibition assay, and BD GENTEST (459100, 459300, 459400, 459500) kits were used for CYP1A2, CYP2C9, CYP2C19 and CYP3A4 inhibition assay. In case of Invitrogen kit, the test materials were diluted in distilled water into 2.5× of the final test concentration.
# (§2) In case of BD GENTEST kit, the test materials were diluted in acetonitrile into 50× of the final test concentration. NADPH-cofactor mixture containing cofactor, G6PDH and control protein was prepared in distilled water as per manufacturer's instruction. 4 μl of 50× test materials and 96 μl of NADPH-cofactor mixture were mixed in U-bottom 96-well plate, and the resulting mixture were pre-incubated at 37° C. for 10 minutes. Predetermined concentrations of enzyme/substrate mixture were prepared in distilled water using buffer (0.5M potassium phosphate, pH 7.4) and each of CYP450 enzyme/substrate mixture provided in the kit for the types of CYP450. To the pre-incubated plate, 100 μl of enzyme/substrate mixture was added, and then incubated at 37° C. for 15 minutes (CYP1A2), 30 minutes (CYP3A4 and CYP2C19) or 1.5 hours (CYP2C9). After completion of the reaction, the reactants were transferred to the white plates, and fluorescent values were measured using a micro-plate reader (Excitation and absorption wavelengths of CYP1A2 and CYP2C19 were 410 nm and 460 nm, respectively; and excitation and absorption wavelengths of CYP2C9 and CYP3A4 were 409 nm and 530 nm, respectively).
# (§3) The measured values were converted into the inhibition percent of the test materials as compared to the value of the untreated control, and the results were summarized in Table 5.
# CYP2C9 = biological target: T3, CYP2C9 (Homo sapiens, UniProt P11712); assay: CYP inhibition assay (BD GENTEST kit); assay type: in vitro ADME; details: 10 μM
# T3 construct: purchased BD GENTEST 459300
# Description: as §1, §2, §3
# CYP2C19 = biological target: T4, CYP2C19 (Homo sapiens, UniProt P33261); assay: CYP inhibition assay (BD GENTEST kit); assay type: in vitro ADME; details: 10 μM
# T4 construct: purchased BD GENTEST 459400
# Description: as §1, §2, §3
# CYP1A2 = biological target: T5, CYP1A2 (Homo sapiens, UniProt P05177); assay: CYP inhibition assay (BD GENTEST kit); assay type: in vitro ADME; details: 10 μM
# T5 construct: purchased BD GENTEST 459100
# T5 sequence (P05177 1-516): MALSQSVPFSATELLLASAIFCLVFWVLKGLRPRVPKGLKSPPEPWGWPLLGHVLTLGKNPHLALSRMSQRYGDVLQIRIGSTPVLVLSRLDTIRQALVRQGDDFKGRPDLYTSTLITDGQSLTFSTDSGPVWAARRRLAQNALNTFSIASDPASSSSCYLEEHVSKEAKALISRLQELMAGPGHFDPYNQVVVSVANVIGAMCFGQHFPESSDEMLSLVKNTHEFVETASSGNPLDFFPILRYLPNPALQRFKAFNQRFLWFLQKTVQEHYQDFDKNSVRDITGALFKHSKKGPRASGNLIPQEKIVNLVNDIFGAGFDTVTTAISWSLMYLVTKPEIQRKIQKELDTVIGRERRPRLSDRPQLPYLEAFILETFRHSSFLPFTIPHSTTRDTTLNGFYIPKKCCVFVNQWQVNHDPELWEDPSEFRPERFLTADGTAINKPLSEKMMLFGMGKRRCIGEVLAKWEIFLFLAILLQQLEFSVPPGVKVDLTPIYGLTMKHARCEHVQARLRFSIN
# Description: as §1, §2, §3
# T2 sequence (P08684 whole entry): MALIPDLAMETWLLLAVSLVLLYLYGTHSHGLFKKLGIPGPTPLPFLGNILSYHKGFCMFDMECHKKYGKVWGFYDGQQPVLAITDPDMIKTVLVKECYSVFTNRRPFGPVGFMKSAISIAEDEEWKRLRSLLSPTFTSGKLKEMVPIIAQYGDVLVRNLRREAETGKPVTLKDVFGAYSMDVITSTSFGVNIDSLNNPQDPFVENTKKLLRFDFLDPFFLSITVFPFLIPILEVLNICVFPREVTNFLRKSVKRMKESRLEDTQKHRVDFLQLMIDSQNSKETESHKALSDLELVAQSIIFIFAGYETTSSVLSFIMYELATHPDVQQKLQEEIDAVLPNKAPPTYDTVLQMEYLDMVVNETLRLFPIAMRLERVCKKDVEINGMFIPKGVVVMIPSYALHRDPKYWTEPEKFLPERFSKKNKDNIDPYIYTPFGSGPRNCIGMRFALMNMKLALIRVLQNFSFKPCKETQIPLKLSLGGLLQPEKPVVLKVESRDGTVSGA
# T3 sequence (P11712 whole entry): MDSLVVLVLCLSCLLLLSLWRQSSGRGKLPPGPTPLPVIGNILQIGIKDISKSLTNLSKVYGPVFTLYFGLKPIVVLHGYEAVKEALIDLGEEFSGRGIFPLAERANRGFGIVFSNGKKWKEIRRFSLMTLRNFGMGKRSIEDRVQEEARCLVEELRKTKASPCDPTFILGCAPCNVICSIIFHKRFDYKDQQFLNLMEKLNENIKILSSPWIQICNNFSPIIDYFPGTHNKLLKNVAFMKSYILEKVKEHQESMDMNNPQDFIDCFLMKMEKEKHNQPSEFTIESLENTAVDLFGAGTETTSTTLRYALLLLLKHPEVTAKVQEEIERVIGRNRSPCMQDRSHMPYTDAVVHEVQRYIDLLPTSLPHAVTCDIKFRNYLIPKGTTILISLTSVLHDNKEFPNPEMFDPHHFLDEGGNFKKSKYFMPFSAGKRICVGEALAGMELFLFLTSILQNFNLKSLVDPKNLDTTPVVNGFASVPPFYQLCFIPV
# T4 sequence (P33261 whole entry): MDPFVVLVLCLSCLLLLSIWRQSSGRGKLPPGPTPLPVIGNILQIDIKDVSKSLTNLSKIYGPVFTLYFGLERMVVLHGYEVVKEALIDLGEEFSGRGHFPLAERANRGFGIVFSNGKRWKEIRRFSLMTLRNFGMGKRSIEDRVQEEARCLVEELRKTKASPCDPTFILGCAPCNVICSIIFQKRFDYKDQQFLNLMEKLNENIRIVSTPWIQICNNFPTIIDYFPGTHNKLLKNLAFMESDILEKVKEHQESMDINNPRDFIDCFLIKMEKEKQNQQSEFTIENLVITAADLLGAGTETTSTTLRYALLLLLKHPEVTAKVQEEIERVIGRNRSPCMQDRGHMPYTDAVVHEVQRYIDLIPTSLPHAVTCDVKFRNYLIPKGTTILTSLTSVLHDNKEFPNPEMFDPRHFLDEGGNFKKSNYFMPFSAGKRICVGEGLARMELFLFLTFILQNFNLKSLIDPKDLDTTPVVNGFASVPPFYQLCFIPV
smiles,measurement,setting,value
"CCc1cnc(N2CCC(COc3ccc(C4=CCC(C(=O)N5CCC[C@@H]5CO)CC4)cc3)CC2)nc1 (single isomer, unassigned; (-)) [Example 291]",EC50,[1],32 nM
same,CYP inhibition (% at 10 μM) 3A4,CYP3A4,36.36%
same,CYP inhibition (% at 10 μM) 2C9,CYP2C9,47.32%
same,CYP inhibition (% at 10 μM) 2C19,CYP2C19,54.06%
same,CYP inhibition (% at 10 μM) 1A2,CYP1A2,0%
